The text below walks through data of patent publication US12679878B2, “CRF2 receptor agonists and their use in therapy” (SANOFI, priority 2020, dated 2026).

In the assay the target is T1, human CRF2α receptor (Homo sapiens, UniProt Q13324).
T1 construct: expressed in transfected cells; host or cells: TeloHEAC
T1 sequence (Q13324 1-411): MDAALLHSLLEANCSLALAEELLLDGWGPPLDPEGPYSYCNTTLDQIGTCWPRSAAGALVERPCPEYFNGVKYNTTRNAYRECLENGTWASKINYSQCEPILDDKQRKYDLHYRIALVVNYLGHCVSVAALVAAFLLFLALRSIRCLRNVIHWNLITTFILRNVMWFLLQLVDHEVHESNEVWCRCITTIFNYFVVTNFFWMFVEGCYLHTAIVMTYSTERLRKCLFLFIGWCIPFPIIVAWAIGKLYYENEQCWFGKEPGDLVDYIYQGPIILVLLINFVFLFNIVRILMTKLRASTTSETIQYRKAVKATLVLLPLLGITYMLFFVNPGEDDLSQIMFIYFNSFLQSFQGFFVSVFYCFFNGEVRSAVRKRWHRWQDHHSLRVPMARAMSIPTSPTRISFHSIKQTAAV
Briefly: cAMP agonism at human CRF2 α receptor in TeloHEAC cells (Example 7). The format is cell-based. Particulars: cAMP HTRF, TeloHEAC cells stably expressing human CRF2 α, 0% HSA; read-out: EC50 [nM], 0% HSA. Summed up: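 HTRF ratio 665/620 nm, read 1 h after lysis reagents, reports cAMP. Cells: thawed stocks, 2000/well, 30 min RT with compound in HBSS, 20 mM HEPES, 0 or 0.1% HSA, 2 mM IBMX. Activity normalised to UCN2 1000 nM = 100%; EC50 from half-maximal activation.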

Molecules are shown by their SMILES. Starred links: 1 amine or outer side, 2 acyl side, 3 side chain; linkers in the order of their positions; H or OH if unused. Non-standard residues stand in square brackets, D forms with d. Residues, ends and D or L forms follow the SMILES beside them. Groups on a side chain read outwards from the residue. *: point of attachment. C20 diacid = O=C(O)CCCCCCCCCCCCCCCCCCC(=O)*; C18 diacid = O=C(O)CCCCCCCCCCCCCCCCC(=O)*; γGlu = O=C(O)[C@H](CCC(=O)[*:2])N[*:1]; AEEA = NCCOCCOCC(=O)O; Aib = CC(C)(N)C(=O)O

Regarding `CC[C@H](C)[C@H](NC(=O)[C@H](CCC(N)=O)NC(=O)[C@H](CCCCNC(=O)COCCOCCNC(=O)COCCOCCNC(=O)CC[C@H](NC(=O)CCCCCCCCCCCCCCCCC(=O)O)C(=O)O)NC(=O)[C@H](CC(C)C)NC(=O)CNC(=O)[C@@H](NC(=O)[C@@H]1CCCN1C(=O)[C@@H](NC(=O)[C@H](CC(=O)O)NC(=O)[C@H](CC(C)C)NC(=O)[C@H](CO)NC(=O)[C@H](CC(C)C)NC(=O)[C@@H](NC(=O)[C@@H](N)Cc1ccccc1)[C@@H](C)O)C(C)C)[C@@H](C)CC)C(=O)N[C@@H](CC(C)C)C(=O)N[C@@H](CC(C)C)C(=O)N[C@@H](CCCCN)C(=O)N[C@@H](CCC(N)=O)C(=O)N[C@@H](CCC(N)=O)C(=O)N[C@@H](CCCCN)C(=O)N[C@@H](CCC(N)=O)C(=O)N[C@@H](CCCCN)C(=O)N[C@@H](CCCCN)C(=O)N[C@@H](CCC(=O)O)C(=O)N[C@@H](CCCNC(=N)N)C(=O)N[C@@H](CCC(N)=O)C(=O)N[C@@H](CCCCN)C(=O)N[C@@H](C)C(=O)N[C@@H](CCC(=O)O)C(=O)N[C@H](C(=O)N[C@@H](CC(N)=O)C(=O)N[C@H](C(=O)N[C@@H](CCC(N)=O)C(=O)N[C@@H](CC(C)C)C(=O)N[C@@H](CC(C)C)C(=O)N[C@@H](CCC(=O)O)C(=O)N[C@@H](CCCNC(=N)N)C(=O)N[C@H](C(N)=O)C(C)C)C(C)C)[C@@H](C)O` [compound 57] (H-FTLSLDVPIGLK([AEEA-AEEA-γGlu-C18 diacid])QILLKQQKQKKERQKAETNVQLLERV-NH2; N-terminus assumed), the EC50 was determined as 38.8 nM.

With `CC[C@H](C)[C@H](NC(=O)[C@H](CCC(N)=O)NC(=O)[C@H](CCCCNC(=O)COCCOCCNC(=O)COCCOCCNC(=O)CC[C@H](NC(=O)CCCCCCCCCCCCCCCCCCC(=O)O)C(=O)O)NC(=O)[C@@H](NC(=O)[C@H](CCCCN)NC(=O)[C@@H](NC(=O)[C@@H]1CCCN1C(=O)[C@@H](NC(=O)[C@H](CC(=O)O)NC(=O)[C@H](CC(C)C)NC(=O)[C@H](CO)NC(=O)[C@H](CC(C)C)NC(=O)[C@@H](NC(=O)[C@@H](N)Cc1ccccc1)[C@@H](C)O)C(C)C)[C@@H](C)O)[C@@H](C)CC)C(=O)N[C@@H](CC(C)C)C(=O)N[C@@H](CC(C)C)C(=O)N[C@@H](CCCCN)C(=O)N[C@@H](CCC(N)=O)C(=O)N[C@@H](CCC(N)=O)C(=O)N[C@@H](CCCCN)C(=O)N[C@@H](CCC(N)=O)C(=O)N[C@@H](CCCCN)C(=O)N[C@@H](CCCCN)C(=O)N[C@@H](CCC(=O)O)C(=O)N[C@@H](CCCNC(=N)N)C(=O)N[C@@H](CCC(N)=O)C(=O)N[C@@H](CCCCN)C(=O)N[C@@H](C)C(=O)N[C@@H](CCC(=O)O)C(=O)N[C@H](C(=O)N[C@@H](CC(N)=O)C(=O)N[C@H](C(=O)N[C@@H](CCC(N)=O)C(=O)N[C@@H](CC(C)C)C(=O)N[C@@H](CC(C)C)C(=O)N[C@@H](CCC(=O)O)C(=O)N[C@@H](CCCNC(=N)N)C(=O)N[C@H](C(N)=O)C(C)C)C(C)C)[C@@H](C)O` [compound 64] (H-FTLSLDVPTKIK([AEEA-AEEA-γGlu-C20 diacid])QILLKQQKQKKERQKAETNVQLLERV-NH2), the EC50 was 13.2 nM.

As to `CC[C@H](C)[C@H](NC(=O)[C@H](CCC(N)=O)NC(=O)[C@H](CCCCNC(=O)COCCOCCNC(=O)COCCOCCNC(=O)CC[C@H](NC(=O)CCCCCCCCCCCCCCCCCCC(=O)O)C(=O)O)NC(=O)[C@H](CC(C)C)NC(=O)CNC(=O)[C@@H](NC(=O)[C@@H]1CCCN1C(=O)[C@@H](NC(=O)[C@H](CC(=O)O)NC(=O)[C@H](CC(C)C)NC(=O)[C@H](CO)NC(=O)[C@H](CC(C)C)NC(=O)[C@@H](NC(=O)[C@@H](N)Cc1ccccc1)[C@@H](C)O)C(C)C)[C@@H](C)CC)C(=O)N[C@@H](CC(C)C)C(=O)N[C@@H](CC(C)C)C(=O)N[C@@H](CCCCN)C(=O)N[C@@H](CCC(N)=O)C(=O)N[C@@H](CCC(N)=O)C(=O)N[C@@H](CCCCN)C(=O)N[C@@H](CCC(N)=O)C(=O)N[C@@H](CCCCN)C(=O)N[C@@H](CCCCN)C(=O)N[C@@H](CCC(=O)O)C(=O)N[C@@H](CCCNC(=N)N)C(=O)N[C@@H](CCC(N)=O)C(=O)N[C@@H](CCC(N)=O)C(=O)N[C@@H](C)C(=O)N[C@@H](CCC(=O)O)C(=O)N[C@H](C(=O)N[C@@H](CC(N)=O)C(=O)N[C@H](C(=O)N[C@@H](CCC(N)=O)C(=O)N[C@@H](CC(C)C)C(=O)N[C@@H](CC(C)C)C(=O)N[C@@H](CCC(=O)O)C(=O)N[C@@H](CCCNC(=N)N)C(=O)N[C@H](C(N)=O)C(C)C)C(C)C)[C@@H](C)O` [compound 65] (H-FTLSLDVPIGLK([AEEA-AEEA-γGlu-C20 diacid])QILLKQQKQKKERQQAETNVQLLERV-NH2), the EC50 was determined as 9.31 nM.

For the compound `CC[C@H](C)[C@H](NC(=O)[C@H](CCC(N)=O)NC(=O)[C@H](CCCCNC(=O)COCCOCCNC(=O)COCCOCCNC(=O)CC[C@H](NC(=O)CCCCCCCCCCCCCCCCCCC(=O)O)C(=O)O)NC(=O)[C@H](CC(C)C)NC(=O)CNC(=O)[C@@H](NC(=O)[C@@H]1CCCN1C(=O)[C@@H](NC(=O)[C@H](CC(=O)O)NC(=O)[C@H](CC(C)C)NC(=O)[C@H](CO)NC(=O)[C@H](CC(C)C)NC(=O)[C@@H](NC(=O)[C@@H](N)Cc1ccccc1)[C@@H](C)O)C(C)C)[C@@H](C)CC)C(=O)N[C@@H](CC(C)C)C(=O)N[C@@H](CC(C)C)C(=O)N[C@@H](CCCCN)C(=O)N[C@@H](CCC(N)=O)C(=O)N[C@@H](CCC(N)=O)C(=O)N[C@@H](CCCCN)C(=O)N[C@@H](CCC(N)=O)C(=O)N[C@@H](CCCCN)C(=O)N[C@@H](CCCCN)C(=O)N[C@@H](CCC(=O)O)C(=O)N[C@@H](CCCNC(=N)N)C(=O)N[C@@H](CCC(N)=O)C(=O)N[C@@H](CCCCN)C(=O)N[C@@H](C)C(=O)N[C@@H](CCC(=O)O)C(=O)N[C@H](C(=O)N[C@@H](CC(N)=O)C(=O)N[C@H](C(=O)N[C@@H](CCC(N)=O)C(=O)N[C@@H](CC(C)C)C(=O)N[C@@H](CC(C)C)C(=O)N[C@@H](CCC(=O)O)C(=O)N[C@@H](CCCNC(=N)N)C(=O)N[C@H](C(N)=O)C(C)C)C(C)C)[C@@H](C)O` [compound 66] (H-FTLSLDVPIGLK([AEEA-AEEA-γGlu-C20 diacid])QILLKQQKQKKERQKAETNVQLLERV-NH2; N-terminus assumed), the EC50 came to 25.4 nM.

For `CC[C@H](C)[C@H](N)C(=O)N[C@H](C(=O)N[C@@H](CC(C)C)C(=O)N[C@@H](CO)C(=O)N[C@@H](CC(C)C)C(=O)N[C@@H](CC(=O)O)C(=O)N[C@H](C(=O)N1CCC[C@H]1C(=O)N[C@H](C(=O)N[C@@H](CCCCN)C(=O)N[C@@H](CC(C)C)C(=O)N[C@@H](CCCCNC(=O)COCCOCCNC(=O)COCCOCCNC(=O)CC[C@H](NC(=O)CCCCCCCCCCCCCCCCC(=O)O)C(=O)O)C(=O)N[C@@H](CCCCN)C(=O)NC(C)(C)C(=O)N[C@@H](CC(C)C)C(=O)N[C@@H](CC(C)C)C(=O)N[C@@H](CCC(=O)O)C(=O)N[C@@H](CCC(N)=O)C(=O)N[C@@H](CCC(=O)O)C(=O)N[C@@H](CCCNC(=N)N)C(=O)N[C@@H](CCC(N)=O)C(=O)N[C@@H](CCCCN)C(=O)N[C@@H](CCCCN)C(=O)N[C@@H](CCC(N)=O)C(=O)N[C@@H](CCCNC(=N)N)C(=O)N[C@@H](CCC(=O)O)C(=O)N[C@@H](CCC(N)=O)C(=O)N[C@@H](C)C(=O)N[C@@H](CCC(=O)O)C(=O)N[C@H](C(=O)N[C@@H](CC(N)=O)C(=O)NC(C)(C)C(=O)N[C@@H](CCC(N)=O)C(=O)N[C@H](C(=O)N[C@@H](CC(C)C)C(=O)N[C@@H](C)C(=O)N[C@@H](CCC(N)=O)C(=O)N[C@H](C(N)=O)C(C)C)[C@@H](C)CC)[C@@H](C)O)[C@@H](C)CC)C(C)C)C(C)C` [compound 71] (H-IVLSLDVPIKLK([AEEA-AEEA-γGlu-C18 diacid])K[Aib]LLEQERQKKQREQAETN[Aib]QILAQV-NH2; N-terminus assumed), the EC50 stood at 3.15 nM.

With `CC[C@H](C)[C@H](N)C(=O)N[C@H](C(=O)N[C@@H](CC(C)C)C(=O)N[C@@H](CO)C(=O)N[C@@H](CC(C)C)C(=O)N[C@@H](CC(=O)O)C(=O)N[C@H](C(=O)N1CCC[C@H]1C(=O)N[C@H](C(=O)N[C@@H](CCCCN)C(=O)N[C@@H](CC(C)C)C(=O)N[C@@H](CCCCNC(=O)COCCOCCNC(=O)COCCOCCNC(=O)CC[C@H](NC(=O)CCCCCCCCCCCCCCCCC(=O)O)C(=O)O)C(=O)N[C@@H](CCC(N)=O)C(=O)N[C@H](C(=O)N[C@@H](CC(C)C)C(=O)N[C@@H](CC(C)C)C(=O)N[C@@H](CCC(=O)O)C(=O)N[C@@H](CCC(N)=O)C(=O)N[C@@H](CCC(=O)O)C(=O)N[C@@H](CCCNC(=N)N)C(=O)N[C@@H](CCC(N)=O)C(=O)N[C@@H](CCCCN)C(=O)N[C@@H](CCCCN)C(=O)N[C@@H](CCC(N)=O)C(=O)N[C@@H](CCCNC(=N)N)C(=O)N[C@@H](CCC(N)=O)C(=O)N[C@@H](CCCCN)C(=O)N[C@@H](C)C(=O)N[C@@H](CCC(=O)O)C(=O)N[C@H](C(=O)N[C@@H](CC(N)=O)C(=O)NC(C)(C)C(=O)N[C@@H](CCC(N)=O)C(=O)N[C@H](C(=O)N[C@@H](CC(C)C)C(=O)N[C@@H](C)C(=O)N[C@@H](CCC(N)=O)C(=O)N[C@H](C(N)=O)C(C)C)[C@@H](C)CC)[C@@H](C)O)[C@@H](C)CC)[C@@H](C)CC)C(C)C)C(C)C` [compound 73] (H-IVLSLDVPIKLK([AEEA-AEEA-γGlu-C18 diacid])QILLEQERQKKQRQKAETN[Aib]QILAQV-NH2), the EC50 came out at 2.6 nM.

The EC50 is the concentration at which the effect is half-maximal.
